# Target: T1, Glucocorticoid Receptor (GR), CHO-GRE-Luc #35 cells (Cricetulus griseus, UniProt A0A9J7F8I2)
# T1 sequence (A0A9J7F8I2 1-774): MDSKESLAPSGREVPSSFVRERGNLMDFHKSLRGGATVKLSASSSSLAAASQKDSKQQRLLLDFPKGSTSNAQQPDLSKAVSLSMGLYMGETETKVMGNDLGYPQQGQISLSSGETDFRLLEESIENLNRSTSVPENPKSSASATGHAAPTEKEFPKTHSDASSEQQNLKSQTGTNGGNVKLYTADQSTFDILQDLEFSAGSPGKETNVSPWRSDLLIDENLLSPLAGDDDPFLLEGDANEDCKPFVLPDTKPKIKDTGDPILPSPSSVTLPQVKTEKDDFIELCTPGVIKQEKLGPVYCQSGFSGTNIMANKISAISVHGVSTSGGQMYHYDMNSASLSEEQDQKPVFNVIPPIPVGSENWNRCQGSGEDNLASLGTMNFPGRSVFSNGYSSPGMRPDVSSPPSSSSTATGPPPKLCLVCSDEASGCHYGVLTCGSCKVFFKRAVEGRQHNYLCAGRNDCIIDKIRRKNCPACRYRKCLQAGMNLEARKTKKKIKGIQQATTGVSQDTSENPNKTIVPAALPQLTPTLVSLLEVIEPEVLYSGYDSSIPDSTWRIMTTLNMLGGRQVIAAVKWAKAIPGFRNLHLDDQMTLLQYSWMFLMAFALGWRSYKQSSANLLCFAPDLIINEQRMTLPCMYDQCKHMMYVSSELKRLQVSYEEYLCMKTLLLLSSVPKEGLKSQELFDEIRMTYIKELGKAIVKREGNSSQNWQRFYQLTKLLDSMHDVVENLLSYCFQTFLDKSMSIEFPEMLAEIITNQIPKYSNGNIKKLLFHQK
# Experiment: Glucocorticoid receptor function test using transgenic-recombinant cell (GRE-luciferase)
# Type: cell-based
# Conditions: not given
# Experimental: Glucocorticoid Receptor Function Test Using Transgenic-Recombinant Cell
# Transgenic-recombinant cell was prepared by our company (Yokohama, JP). In Hokkaido System Science Co., Ltd., a cis-element wherein two glucocorticoid responsive elements (GRE) present in the […] promoter region of mouse were connected in tandem was produced on order from synthetic DNA. The gene was incorporated into a plasmid vector having a gene encoding luciferase enzyme. The plasmid was incorporated into CHO-K1 cell to give a transfectant. The expression cell (CHO-GRE-Luc #35) produces luciferase instead of the object protein under regulation of a transcription region involved in the expression of the object protein. That is, using the cell, a substance that controls production of the object protein can be screened for by replacing the substance with the luciferase activity. Fetal Bovine Serum (FBS), L-glutamine, penicillin-streptomycin solution, PBS(−), trypsin-EDTA solution, Opti-MEM medium and G418 were obtained from GIBCO (Auckland, N.Z.). A 10 cm dish and DMEM:HAM′S F12 medium were obtained from IWAKI (Chiba, JP). A 96 well white plate was obtained from Corning (Corning, N.Y.). Bright-Glo was obtained from Promega (Madison, US). Dexamethasone was obtained from Sigma Chemicals (St. Louis, Mo.).
# CHO-GRE-Luc #35 cells were cultured for several days in a 10 cm dish in a medium (10% FBS/DMEM:HAM'S F12/2.5 mM L-glutamine/50 U/mL penicillin/25 μg/mL streptomycin/500 μg/mL G418). Sub-confluent cells were washed with a suitable amount of PBS(−), 1 ml of Trypsin-EDTA was added and the cells were stood still in a CO2 incubator at 37° C. for 3 min. A 10-fold amount of Opti-MEM medium was added to give a suspension, which was placed in a centrifugal tube and centrifuged (25° C., 1,000 rpm, 5 min). The supernatant was removed, and the cells were suspended in 5 ml of Opti-MEM medium and counted.
# Storage solutions (5-20 mM) of the compound were prepared with DMSO. The storage solutions were diluted with DMSO to 1 mM, and further diluted 100-fold with distilled water or Opti-MEM medium to give solutions. The preparations were diluted with 1% DMSO solution to each concentration. As GR agonist, 10 nM dexamethasone was used. 0.2% DMSO was present at the time of the function assay.
# The prepared compound solutions (evaluation compound solution or 1% DMSO solution 10 μL+dexamethasone or 1% DMSO solution 10 μL) were added to the plate. After the addition, the place was stood still in a CO2 incubator at 37° C. for about 6 hr. After the reaction, Bright-Glo was added at 20 μL/well, and the mixture was gently shaken and measured by a microplate luminometer (Turner Designs Instrument).
# The IC50 value (nM) of the evaluation compound against GR stimulation with dexamethasone was calculated using Prism 3.0 as an analysis software and assuming one-site competition.
row,SMILES,IC50 [nM]
1,"C=CCC1(C)C(=O)C(C)(C)Nc2c1cc(-c1cccc3cc[nH]c13)c1c2OCO1 (stereo not shown) [Example 78, 6-allyl-4-(1H-indol-7-yl)-6,8,8-trimethyl-6,7,8,9-tetrahydro-[1,3]dioxolo[4,5-h]quinolin-7-one]",94
2,"CC1(C)Nc2c(cc(-c3cccc4nncn34)c3c2CCC3)C(C)(C)C1=O [Example 17, 2,2,4,4-tetramethyl-6-([1,2,4]triazolo[4,3-a]pyridin-5-yl)-2,3,4,7,8,9-hexahydro-1H-cyclopenta[h]quinolin-3-one]",91

# Same assay, conditions: against GR stimulation with 10 nM dexamethasone, luciferase, about 6 hr; read-out: GR (IC50: nM)
row,SMILES,IC50 [nM]
1,"CC1(C)Nc2c(cc(-c3ccnc4ncccc34)c3occc23)C(C)(C)C1=O [Example 102, 2,2,4,4-tetramethyl-6-([1,8]naphthyridin-4-yl)-1,2,3,4-tetrahydro-furo[2,3-h]quinolin-3-one]",35
2,"CCC1(C)C(=O)C(C)(C)Nc2c1cc(-c1cccc3nccn13)c1c2CCC1 (stereo not shown) [Example 58, 4-ethyl-6-(imidazo[1,2-s]pyridin-5-yl)-2,2,4-trimethyl-2,3,4,7,8,9-hexahydro-1H-cyclopenta[h]quinolin-3-one]",37
3,"CC1(C)Nc2c(cc(-c3ccnc4ncccc34)c3c2CCO3)C(C)(C)C1=O [Example 92, 2,2,4,4-tetramethyl-6-([1,8]naphthyridin-4-yl)-1,2,3,4,8,9-hexahydro-furo[2,3-h]quinolin-3-one]",73
4,"C=CCC1(C)C(=O)C(C)(C)Nc2c1cc(-c1cccc3nccn13)c1c2CCC1 (stereo not shown) [Example 57, 4-allyl-6-(imidazo[1,2-a]pyridin-5-yl)-2,2,4-trimethyl-2,3,4,7,8,9-hexahydro-1H-cyclopenta[h]quinolin-3-one]",69
5,"CC1(C)Nc2c(cc(-c3ccnc4ncccc34)c3c2CCC3)C(C)(C)C1=O [Example 21, 2,2,4,4-tetramethyl-6-([1,8]naphthyridin-4-yl)-2,3,4,7,8,9-hexahydro-1H-cyclopenta[h]quinolin-3-one]",53
6,"CC#CCC1(C)C(=O)C(C)(C)Nc2c1cc(-c1cccc3nccn13)c1c2CCC1 (stereo not shown) [Example 63, 4-(2-butynyl)-6-(imidazo[1,2-a]pyridin-5-yl)-2,2,4-trimethyl-2,3,4,7,8,9-hexahydro-1H-cyclopenta[h]quinolin-3-one]",48
7,"CC1(C)Nc2c(cc(-c3cccc4ncccc34)c3occc23)C(C)(C)C1=O [Example 101, 2,2,4,4-tetramethyl-6-(quinolin-5-yl)-1,2,3,4-tetrahydro-furo [2,3-h]quinolin-3-one]",37
8,"CC1(C)Nc2c(cc(-c3cncc4nccn34)c3occc23)C(C)(C)C1=O [Example 100, 6-(imidazo[1,2-a]pyrazin-5-yl)-2,2,4,4-tetramethyl-1,2,3,4-tetrahydro-furo[2,3-h]quinolin-3-one]",47
9,"Cc1onc(CO)c1-c1cc2c(c3ccoc13)NC(C)(C)C(=O)C2(C)C [Example 94, 6-(3-hydroxymethyl-5-methylisoxazol-4-yl)-2,2,4,4-tetramethyl-1,2,3,4-tetrahydro-furo[2,3-h]quinolin-3-one]",66
10,"Cc1noc(C)c1-c1cc2c(c3c1OCC3)NC(C)(C)C(=O)C2(C)C [Example 84, 6-(3,5-dimethylisoxazol-4-yl)-2,2,4,4-tetramethyl-1,2,3,4,8,9-hexahydro-furo[2,3-h]quinolin-3-one]",49
11,"Cc1noc(C)c1-c1cc2c(c3c1OCO3)NC(C)(C)C(=O)C2(C)C [Example 69, 4-(3,5-dimethylisoxazol-4-yl)-6,6,8,8-tetramethyl-6,7,8,9-tetrahydro-[1,3]dioxolo[4,5-h]quinolin-7-one]",77
12,"CC1(C)Nc2c(cc(-c3cccc4nccn34)c3c2CCO3)C(C)(C)C1=O [Example 88, 6-(imidazo[1,2-a]pyridin-5-yl)-2,2,4,4-tetramethyl-1,2,3,4,8,9-hexahydro-furo[2,3-h]quinolin-3-one]",66
13,"Cc1nnn(C)c1-c1cc2c(c3c1CCC3)NC(C)(C)C(=O)C2(C)C [Example 4, 6-(3,5-dimethyl-3H-[1,2,3]triazol-4-yl)-2,2,4,4-tetramethyl-2,3,4,7,8,9-hexahydro-1H-cyclopenta[h]quinolin-3-one]",86
14,"CC1(C)Nc2c(cc(-c3cccc4ncccc34)c3c2OCO3)C(C)(C)C1=O [Example 72, 6,6,8,8-tetramethyl-4-(quinolin-5-yl)-6,7,8,9-tetrahydro-[1,3]dioxolo[4,5-h]quinolin-7-one]",40
15,"CC1(C)Nc2c(cc(-c3cccc4nccn34)c3c2OCO3)C(C)(C)C1=O [Example 71, 4-(imidazo[1,2-a]pyridin-5-yl)-6,6,8,8-tetramethyl-6,7,8,9-tetrahydro-[1,3]dioxolo[4,5-h]quinolin-7-one]",59
16,"CC1(C)Nc2c(cc(-c3ccnc4cc[nH]c34)c3c2CCC3)C(C)(C)C1=O [Example 13, 2,2,4,4-tetramethyl-6-(1H-pyrrolo[3,2-b]pyridin-7-yl)-2,3,4,7,8,9-hexahydro-1H-cyclopenta[h]quinolin-3-one]",31
17,"CC1(C)Nc2c(cc(-c3cccc4nccn34)c3occc23)C(C)(C)C1=O [Example 98, 6-(imidazo[1,2-a]pyridin-5-yl)-2,2,4,4-tetramethyl-1,2,3,4-tetrahydro-furo[2,3-h]quinolin-3-one]",31
18,"C=CCC1(C)C(=O)C(C)(C)Nc2c1cc(-c1ccc(O)cc1C)c1c2CCC1 (stereo not shown) [Example 50, 4-allyl-6-(4-hydroxy-2-methylphenyl)-2,2,4-trimethyl-2,3,4,7,8,9-hexahydro-1H-cyclopenta[h]quinolin-3-one]",61
19,"Cc1noc(C)c1-c1cc2c(c3c1CCC3)NC(C)(C)C(=O)C2(C)C [Example 2, 6-(3,5-dimethylisoxazol-4-yl)-2,2,4,4-tetramethyl-2,3,4,7,8,9-hexahydro-1H-cyclopenta[h]quinolin-3-one]",30
20,"CC1(C)Nc2c(cc(-c3cccc4ncccc34)c3c2CCC3)C(C)(C)C1=O [Example 20, 2,2,4,4-tetramethyl-6-(quinolin-5-yl)-2,3,4,7,8,9-hexahydro-1H-cyclopenta[h]quinolin-3-one]",74
21,"CC1(C)Nc2c(cc(-c3cccc4nccn34)c3c2OC(F)(F)O3)C(C)(C)C1=O [Example 82, 2,2-difluoro-4-(imidazo[1,2-a]pyridin-5-yl)-6,6,8,8-tetramethyl-6,7,8,9-tetrahydro-[1,3]dioxolo[4,5-h]quinolin-7-one]",111
22,"CC1(C)Nc2c(cc(-c3cccc4nccn34)c3c2CCC3)C(C)(C)C1=O [Example 14, 6-(imidazo[1,2-a]pyridin-5-yl)-2,2,4,4-tetramethyl-2,3,4,7,8,9-hexahydro-1H-cyclopenta[h]quinolin-3-one]",21
23,"Cc1noc(C)c1-c1cc2c(c3c1C(=O)CC3)NC(C)(C)C(=O)C2(C)C [Example 104, 6-(3,5-dimethylisoxazol-4-yl)-2,2,4,4-tetramethyl-2,3,4,7,8,9-hexahydro-1H-cyclopenta[h]quinoline-3,7-dione]",128

# Source: patent US8367695B2, “Condensed tetrahydroquinoline derivative and use thereof for medical purposes” (Mitsubishi Tanabe Pharma Corporation, priority 2007, dated 2013)
